“And” between values parts separate entries of the source, which are not always exact repeats. Identical values can stand only once.
How the values were obtained:
Type in all cases: in vivo, C3H/HeN mice
MDAH-MCa-4 tumours [1] = assay: Tumour blood flow by 99mTc pertechnetate wash-out (clearance rate constant k); settings: for time course of tumour blood flow inhibition: agent alone: 5-HT 700 µmol kg-1, DMXAA 70 µmol kg-1
MDAH-MCa-4 tumours [2] = assay: Tumour necrosis / residual viable tissue scored histologically (H&E sections)
MDAH-MCa-4 tumours [3] = assay: Tumour growth delay (time to reach 13 mm, treated minus control)

NCCc1c[nH]c2ccc(O)cc12 [5-HT, 5-hydroxytryptamine]
dose-modifying factor (DMF) for blood flow inhibition by DMXAA (MDAH-MCa-4 tumours [1]; 5-HT 700 µmol kg-1 co-administered with DMXAA, at 4 h): > 3
effect on tumour blood flow at 4 h (MDAH-MCa-4 tumours [1]; 5-HT alone 700 µmol kg-1 i.p.): little effect
time course of tumour blood flow inhibition (MDAH-MCa-4 tumours [1]): weak and transient inhibition
dose-modifying factor (DMF) for necrosis (DMXAA dose for 50% reduction of viable tissue) (MDAH-MCa-4 tumours [2]; 5-HT 700 µmol kg-1 co-administered with DMXAA, at 12 h): 2.3
necrotic fraction (MDAH-MCa-4 tumours [2]; 5-HT alone 700 µmol kg-1, 12 h (control 8.8%)): 38%
dose-modifying factor (DMF) for growth delay (DMXAA dose for 5-day growth delay) (MDAH-MCa-4 tumours [3]; 5-HT 700 µmol kg-1 co-administered with DMXAA): 2.0
Tumour growth delay, Expt 2 (MDAH-MCa-4 tumours [3]; single agent i.p.: bioreductive drug at its MTD, DMXAA 80 µmol kg-1, 5-HT 700 µmol kg-1, mean ± s.e.m.): -2.9 + 0.7 days

Cc1ccc2c(=O)c3cccc(CC(=O)O)c3oc2c1C [DMXAA, 5,6-dimethylxanthenone-4-acetic acid]
time to maximal tumour blood flow inhibition (MDAH-MCa-4 tumours [1]; DMXAA 20 µmol kg-1 co-administered with 5-HT 700 µmol kg-1): ≤ 1 h
DMXAA dose giving 50% inhibition of tumour blood flow (MDAH-MCa-4 tumours [1]; DMXAA alone i.p., 4 h after administration): 60 µmol/kg
time course of tumour blood flow inhibition (MDAH-MCa-4 tumours [1]): progressive inhibition over 4 h with no recovery by 24 h
necrosis (MDAH-MCa-4 tumours [2]; DMXAA 60 µmol kg-1 and above co-administered with 5-HT 700 µmol kg-1, 12 h): > 99%
threshold dose for the necrotizing effect (MDAH-MCa-4 tumours [2]; DMXAA alone i.p., 12 h): approximately 60 µmol kg-1
doubling time of fraction of viable tissue after treatment (MDAH-MCa-4 tumours [2]; between 1 and 4 days after DMXAA 80 µmol kg-1): 1.0 days
predicted growth delay (from regrowth of residual viable tissue) (MDAH-MCa-4 tumours [3]; mouse, in vivo): 6.0 days and 5.8 days

Nc1n[n+]([O-])c2ccccc2[n+]1[O-] [TIRA, tirapazamine]
DMF relative to DMXAA alone (5-day growth delay) (MDAH-MCa-4 tumours [3]; mouse, in vivo): 2.6
factor lowering the DMXAA dose required for a 5-day growth delay (MDAH-MCa-4 tumours [3]; mouse, in vivo): 1.8
Tumour growth delay (one experiment only, column not discernible) (MDAH-MCa-4 tumours [3]; mouse, in vivo, ip): 2.7 ± 1.4 days

— PMC2063102 (British Journal of Cancer, 1998)
